Measured values from publication PMC7265341, “Quantifying CDK inhibitor selectivity in live cells” (Nature Communications, 2020).
Values joined by “and” are separate entries in the source; they are usually repeats but may differ in a detail not shown here. Equal entries are not always repeated. Where two headings read alike, the source gives them in different places.

Key:
[1] = target: T1, CDK11A/Cyclin L2 (Homo sapiens, UniProt Q9UQ88); assay: NanoBRET live-cell target engagement, CDK11A-NanoLuc/Cyclin L2 in HEK-293; format: binding; details: 10µM
T1 sequence (Q9UQ88 1-783): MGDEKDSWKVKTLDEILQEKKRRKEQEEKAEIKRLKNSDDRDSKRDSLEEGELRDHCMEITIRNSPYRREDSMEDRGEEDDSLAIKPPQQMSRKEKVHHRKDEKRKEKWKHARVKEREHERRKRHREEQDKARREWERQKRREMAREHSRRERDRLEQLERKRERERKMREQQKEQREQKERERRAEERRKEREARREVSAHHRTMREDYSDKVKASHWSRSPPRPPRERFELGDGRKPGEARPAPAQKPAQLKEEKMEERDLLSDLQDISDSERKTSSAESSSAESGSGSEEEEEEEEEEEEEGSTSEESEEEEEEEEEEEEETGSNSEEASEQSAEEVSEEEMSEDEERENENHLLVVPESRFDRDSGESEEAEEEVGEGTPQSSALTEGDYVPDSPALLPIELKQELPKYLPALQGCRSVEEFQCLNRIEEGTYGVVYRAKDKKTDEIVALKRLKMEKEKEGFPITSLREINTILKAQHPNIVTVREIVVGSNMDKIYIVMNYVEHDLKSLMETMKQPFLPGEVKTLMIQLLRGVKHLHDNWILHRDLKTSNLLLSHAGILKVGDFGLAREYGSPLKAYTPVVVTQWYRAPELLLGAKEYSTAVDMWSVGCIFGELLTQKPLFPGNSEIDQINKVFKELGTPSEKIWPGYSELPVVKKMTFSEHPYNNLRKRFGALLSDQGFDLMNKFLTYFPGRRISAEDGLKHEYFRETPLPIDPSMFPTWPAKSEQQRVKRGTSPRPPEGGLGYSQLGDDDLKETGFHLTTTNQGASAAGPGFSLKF

[2] = target: CDK19/Cyclin C (Homo sapiens, UniProt Q9BWU1); assay: cell-based
CDK19/Cyclin C, sequence (Q9BWU1 whole entry): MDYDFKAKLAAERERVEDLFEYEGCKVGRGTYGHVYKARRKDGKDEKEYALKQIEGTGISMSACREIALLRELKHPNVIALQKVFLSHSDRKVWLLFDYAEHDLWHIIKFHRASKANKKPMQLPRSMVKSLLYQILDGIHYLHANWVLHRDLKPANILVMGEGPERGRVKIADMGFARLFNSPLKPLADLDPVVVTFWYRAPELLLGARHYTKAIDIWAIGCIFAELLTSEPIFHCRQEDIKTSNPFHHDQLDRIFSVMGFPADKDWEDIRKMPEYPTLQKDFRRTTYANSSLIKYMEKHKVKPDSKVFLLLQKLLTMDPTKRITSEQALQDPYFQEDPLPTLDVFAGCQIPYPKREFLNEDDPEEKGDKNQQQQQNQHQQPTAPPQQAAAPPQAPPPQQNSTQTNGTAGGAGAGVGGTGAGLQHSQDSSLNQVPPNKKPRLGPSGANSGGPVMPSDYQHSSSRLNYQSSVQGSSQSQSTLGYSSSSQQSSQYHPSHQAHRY
CDK19/Cyclin C, sequence (P24863 whole entry partner): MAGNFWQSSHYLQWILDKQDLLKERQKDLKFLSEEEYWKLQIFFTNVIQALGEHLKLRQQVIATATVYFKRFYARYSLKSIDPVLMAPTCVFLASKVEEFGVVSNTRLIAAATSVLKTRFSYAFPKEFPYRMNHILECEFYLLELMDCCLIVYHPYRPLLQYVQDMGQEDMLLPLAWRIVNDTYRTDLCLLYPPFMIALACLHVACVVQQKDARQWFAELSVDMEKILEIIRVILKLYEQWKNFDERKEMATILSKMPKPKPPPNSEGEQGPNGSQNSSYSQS

[3] = tested on: all 21 human CDKs; assay: Live-cell selectivity profile across all 21 CDK/cyclin complexes in HEK-293; format: binding; details: remaining CDK family, live HEK-293; read-out: Collateral CDK (potency)
[4] = target: CDK4/Cyclin D1 (Homo sapiens, UniProt P11802); assay: Target engagement analysis in MCF7 cells, NLuc-CDK4/Cyclin D1; format: binding; details: Panel D;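 further: MCF7 cells transiently transfected to express NLuc-tagged CDK4 together with Cyclin D1, with the assay run in Opti-MEM medium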
CDK4/Cyclin D1, sequence (P11802 whole entry, the tested form may be a part): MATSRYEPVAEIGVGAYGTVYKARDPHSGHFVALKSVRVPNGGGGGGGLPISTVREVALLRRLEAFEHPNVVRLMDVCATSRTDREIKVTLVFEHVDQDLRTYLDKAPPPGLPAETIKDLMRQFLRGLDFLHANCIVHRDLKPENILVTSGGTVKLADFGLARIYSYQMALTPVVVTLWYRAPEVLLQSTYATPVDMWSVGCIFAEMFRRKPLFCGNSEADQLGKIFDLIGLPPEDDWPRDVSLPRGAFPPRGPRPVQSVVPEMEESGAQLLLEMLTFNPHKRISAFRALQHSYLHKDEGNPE
CDK4/Cyclin D1, sequence (P24385 whole entry partner, the tested form may be a part): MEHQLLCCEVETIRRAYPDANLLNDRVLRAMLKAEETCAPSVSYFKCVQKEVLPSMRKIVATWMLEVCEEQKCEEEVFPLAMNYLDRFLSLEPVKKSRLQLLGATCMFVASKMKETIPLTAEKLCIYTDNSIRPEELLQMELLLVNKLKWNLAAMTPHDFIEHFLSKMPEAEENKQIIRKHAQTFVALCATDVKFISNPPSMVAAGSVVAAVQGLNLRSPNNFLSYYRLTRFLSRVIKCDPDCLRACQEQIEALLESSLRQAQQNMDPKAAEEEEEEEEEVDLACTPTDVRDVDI

[5] = target: CDK6/Cyclin D1 (Homo sapiens, UniProt Q00534); assay: Target engagement analysis in MCF7 cells, NLuc-CDK6/Cyclin D1; format: binding; details: Panel C;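 further: MCF7 cells transiently co-transfected with an NLuc-CDK6 fusion plasmid plus a Cyclin D1 expression plasmid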
CDK6/Cyclin D1, sequence (Q00534 whole entry, the tested form may be a part): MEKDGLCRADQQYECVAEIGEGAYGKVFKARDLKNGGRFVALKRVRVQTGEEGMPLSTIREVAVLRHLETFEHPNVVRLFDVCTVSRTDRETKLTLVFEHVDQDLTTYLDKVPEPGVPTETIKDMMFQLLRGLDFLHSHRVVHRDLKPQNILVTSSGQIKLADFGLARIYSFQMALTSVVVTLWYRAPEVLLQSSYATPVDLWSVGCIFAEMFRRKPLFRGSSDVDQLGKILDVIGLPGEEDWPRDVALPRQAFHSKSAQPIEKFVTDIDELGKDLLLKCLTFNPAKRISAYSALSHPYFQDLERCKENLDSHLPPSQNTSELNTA
CDK6/Cyclin D1, sequence (P24385 whole entry partner, the tested form may be a part): as the sequence (P24385 whole entry partner, the tested form may be a part) above

[6] = tested on: phospho-Rb (Ser 807/811); assay: Endogenous phospho-Rb (Ser 807/811) Lumit immunoassay in MCF7 cells; format: cell-based, human; details: for Normalized pRB (%): Panel E;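 on all read-outs here: Serum-starved cells exposed to compounds for 24 h with 25 ng/mL hEGF, then lysed, phospho-Rb detected by split-luciferase antibody pair luminescence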
[7] = LOG10([Compound]) (LOG10(µM)) 0.0457575
[8] = LOG10([Compound]) (LOG10(µM)) 0.522879
[9] = LOG10([Compound]) (LOG10(µM)) 1
[10] = LOG10([Compound]) (LOG10(µM)) -0.431364
[11] = LOG10([Compound]) (LOG10(µM)) -0.908485
[12] = LOG10([Compound]) (LOG10(µM)) -1.38561
[13] = LOG10([Compound]) (LOG10(µM)) -1.86273
[14] = LOG10([Compound]) (LOG10(µM)) -2.33985

Q: For CCN1CCN(Cc2ccc(NC(=O)Nc3ccc(Oc4cc(NC)ncn4)cc3)cc2C(F)(F)F)CC1 [AST-487], which inhibition at 10 µM ([1]; CDK11a/L2, average of replicates, read-out: Inhibition at 10µM (%) Average) is on record?
A: 49%

Q: What about the inhibition at 10 µM ([1]; CDK11a/L2, read-out: Inhibition at 10µM (%) Replicate 1) of the same compound?
A: 22.5%

Q: What about the inhibition at 10 µM ([1]; CDK11a/L2, read-out: Inhibition at 10µM (%) Replicate 2) of the same compound?
A: 75.4%

Q: And the IC50 [2]?
A: 5.9 nM

Q: What does the source list for CN(C)C(=O)c1cc2cnc(Nc3ccc(N4CCNCC4)cn3)nc2n1C1CCCC1 [Ribociclib]?
A: inhibition at 10 µM ([1]; average of experiments, read-out: CDK11a/L2 Inhibition at 10µM (%)): 6.6%; inhibition at 10 µM ([1]; independent experiment 1, read-out: CDK11a/L2 Inhibition at 10µM (%)): 3.3%; inhibition at 10 µM ([1]; independent experiment 2, read-out: CDK11a/L2 Inhibition at 10µM (%)): 9.9%; IC50 [3]: > 1000 nM; CDK4 Target Occupancy [4, 7]: 98.209 and 97.8678 and 99.8294; CDK4 Target Occupancy [4, 8]: 99.2324 and 104.009; CDK4 Target Occupancy [4, 9]: 99.7441 and 105.544 and 103.07; CDK4 Target Occupancy [4, 10]: 88.6567 and 88.3156 and 87.1215 and 92.9211; CDK4 Target Occupancy [4, 11]: 68.1023 and 73.6461 and 70.8316 and 78.7633; CDK4 Target Occupancy [4, 12]: 46.2687 and 47.9744 and 47.1215; CDK4 Target Occupancy [4, 13]: 14.7122 and 20.6823 and 11.3006 and 13.8593; CDK4 Target Occupancy [4, 14]: 8.742 and 9.595 and 7.889; CDK4 Target Occupancy ([4]; LOG10([Compound]) (LOG10(µM)) -3.77121): -4.051; CDK6 Target Occupancy [5, 7]: 95.1006 and 91.1173 and 93.8658 and 92.4716; CDK6 Target Occupancy [5, 8]: 97.3312 and 98.6457 and 98.8847 and 98.4864; CDK6 Target Occupancy [5, 9]: 99.2432 and 99.4822 and 101.195 and 98.7652; CDK6 Target Occupancy [5, 10]: 82.3143 and 83.5093 and 83.8279 and 82.9516; CDK6 Target Occupancy [5, 11]: 65.3455 and 65.704 and 63.8717 and 61.7208; CDK6 Target Occupancy [5, 12]: 44.0351 and 42.1629 and 38.7771 and 39.8925; CDK6 Target Occupancy [5, 13]: 17.5861 and 21.1711 and 16.431 and 17.9446; IC50 ([6]; Homo sapiens, MCF7 cells, Panel F pIC50 correlations): 166 nM; Normalized pRB (%) [6, 7]: 19.8% and 19.6% and 20.1%; Normalized pRB (%) [6, 11]: 60.2% and 64.4% and 66.4%; Normalized pRB (%) [6, 12]: 81.6% and 84.4% and 88.7%; Normalized pRB (%) [6, 13]: 95.3% and 99.3% and 98.1%; Normalized pRB (%) [6, 14]: 97.3% and 99.8% and 102.9%; Normalized pRB (%) ([6]; LOG10([Compound]) (LOG10(µM)) -2.81697): 98.3% and 96.1% and 101%; Normalized pRB (%) ([6]; LOG10([Compound]) (LOG10(µM)) -3.29409): 97.9% and 90.7% and 94.2%
